Laboratory results as given in patent US20240308992A1 (Biopolar Youtang(Guangdong) Pharmaceutical Co., Ltd., priority 2021, published 2024).
Structures can show the parent of a compound that is named as a salt.

What follows are compounds tested against T1, Drak2 (Homo sapiens, UniProt O94768) (assay: Drak2 activity test, ADP-Glo kinase assay (Promega)). Conditions: inhibition of Drak2 kinase activity, 2 h room temperature, activity range classes, read-out: IC50_Drak2.
T1 sequence (O94768 1-372): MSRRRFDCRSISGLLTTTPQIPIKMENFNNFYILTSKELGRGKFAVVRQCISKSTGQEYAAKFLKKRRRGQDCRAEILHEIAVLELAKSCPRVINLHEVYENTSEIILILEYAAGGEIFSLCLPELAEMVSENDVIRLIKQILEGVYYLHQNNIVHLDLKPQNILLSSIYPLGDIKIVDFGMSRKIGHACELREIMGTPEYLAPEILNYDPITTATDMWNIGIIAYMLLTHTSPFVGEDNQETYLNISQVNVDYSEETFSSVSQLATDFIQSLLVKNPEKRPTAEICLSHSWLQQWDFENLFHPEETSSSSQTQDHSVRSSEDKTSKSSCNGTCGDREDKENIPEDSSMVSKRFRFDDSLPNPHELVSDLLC
Type: biochemical

Compound | IC50
O=C(CC1CCC1)Nc1csc(-c2cncc(-c3ccnc4[nH]ccc34)n2)c1 [Example 209, N-(5-(6-(1H-pyrrolo [2,3-b]pyridin-4-yl)pyrazin-2-yl)thiophen-3-yl)-2-cyclobutylacetamide] | 11 to 100 nM
O=C(Nc1csc(-c2cncc(-c3ccc(F)c(F)c3)n2)c1)C1CCC1 [Example A28, N-(5-(6-(3,4-difluorophenyl)pyrazin-2-yl)thiophen-3-yl)cyclobutanecarboxamide] | 1000 to 10000 nM
CCCCC(=O)Nc1csc(-c2cncc(-c3ccc(-c4cc(O)no4)c(OC)c3)n2)c1 [Example A36, N-(5-(6-(4-(3-hydroxyisoxazol-5-yl)-3-methoxyphenyl)pyrazin-2-yl)thiophen-3-yl)pentanamide] | 101 to 1000 nM
COc1cc(-c2cncc(-c3cc(NC(=O)CC4CCC4)cs3)n2)ccc1OCC(=O)N1CCOCC1 [Example 191, 2-Cyclobutyl-N-{5-[6-(3-methoxy-4-{[2-(morpholin-4-yl)-2-oxoethyl]oxy}phenyl)pyrazin-2-yl]thiophen-3-yl} acetamide] | < 10 nM
O=C(CC1CCC1)Nc1csc(-c2cncc(-c3ccc4cn[nH]c4c3)n2)c1 [Example A52, N-(5-(6-(1H-indazol-6-yl)pyrazin-2-yl)thiophen-3-yl)-2-cyclobutylacetamide] | 11 to 100 nM
COc1ccc(-c2cncc(-c3cc(N)cs3)n2)cc1OC [Example A2, 5-(6-(3,4-dimethoxyphenyl)pyrazin-2-yl)thiophen-3-amine hydrochloride] | 1000 to 10000 nM
COc1ccc(-c2cncc(-c3cc(NC(=O)CC4CCCC4)cs3)n2)cc1OC [Example A33, 2-cyclopentyl-N-(5-(6-(3,4-dimethoxyphenyl)pyrazin-2-yl)thiophen-3-yl)acetamide] | 101 to 1000 nM
COc1cc(-c2cncc(-c3cc(NC(=O)CC4CCC4)cs3)n2)ccc1OC(O)CN1CCOCC1=O (centres unmarked) [Example 171] | 11 to 100 nM
CCCCC(=O)Nc1csc(-c2cncc(-c3cccc(C#N)c3)n2)c1 [Example 198, N-{5-[6-(3-cyanophenyl)pyrazin-2-yl]thiophen-3-yl} pentanamide] | 101 to 1000 nM
CCCCC(=O)Nc1csc(-c2cncc(-c3cccc(O)c3)n2)c1 [Example 197, N-(5-(6-(3-hydroxyphenyl)pyrazin-2-yl)thiophen-3-yl) pentanamide] | 11 to 100 nM
COc1cc(-c2cncc(-c3cc(NC(=O)CC4CCC4)cs3)n2)ccc1S(=O)(=O)C1CCC1 [Example A48, 2-cyclobutyl-N-(5-(6-(4-(cyclobutylsulfonyl)-3-methoxyphenyl)pyrazin-2-yl)thiophen-3-yl)acetamide] | 101 to 1000 nM
COc1cc(-c2cncc(-c3cc(NC(=O)CC4CCC4)cs3)n2)ccc1OCCc1ccccn1 [Example 172, 2-cyclobutyl-N-{5-[6-(3-methoxy-4-{[2-(pyridin-2-yl)ethyl]oxy}phenyl)pyrazin-2-yl]thiophen-3-yl} acetamide] | 101 to 1000 nM
CCCCC(=O)Nc1csc(-c2cncc(-c3ccc(N)c(OC)c3)n2)c1 [Example 196, N-{5-[6-(4-amino-3-methoxyphenyl)pyrazin-2-yl]thiophen-3-yl}pentanamide] | < 10 nM
O=C(CC1CCC1)Nc1csc(-c2cncc(-c3ccnc4c3ccn4CC(F)(F)F)n2)c1 [Example 215, 2-Cyclobutyl-N-(5-{6-[1-(2,2,2-trifluoroethyl)pyrrolo [2,3-b]pyridin-4-yl]pyrazin-2-yl}thiophen-3-yl) acetamide] | 101 to 1000 nM
COc1cc(-c2cncc(-c3cc(NC(=O)CC4CC(OC)C4)cs3)n2)ccc1C(=O)N(C)C1CC2(C1)CN(C)C2 (centres unmarked) [Example 206, 2-Methoxy-4-(6-(4-(2-(3-methoxycyclobutyl)acetylamino)thiophen-2-yl)pyrazin-2-yl)-N-methyl-N-(2-methyl-2-azaspiro [3.3]heptane-6-yl) benzamide] | 11 to 100 nM
COc1ccc(OC)c(-c2cncc(-c3cc(NC(=O)C4CCC4)cs3)n2)c1 [Example A14, N-(5-(6-(2,5-dimethoxyphenyl)pyrazin-2-yl)thiophen-3-yl)cyclobutanecarboxamide] | 1000 to 10000 nM

Other lines, results leading:

IC50 | Compound
101 to 1000 nM | COc1cc(-c2cncc(-c3cc(NC(=O)CC4CCCC4)cs3)n2)ccc1CN1CCOCC1 [Example B36, 2-cyclopentyl-N-(5-(6-(3-methoxy-4-(morpholinomethyl)phenyl)pyrazin-2-yl)thiophen-3-yl)acetamide]
11 to 100 nM | CCCCC(=O)Nc1csc(-c2cncc(-c3ccc(C(=O)N4CCN(C5CCN(C)CC5)CC4)c(OC)c3)n2)c1 [Example B47, N-(5-(6-(3-methoxy-4-(4-(1-methylpiperidin-4-yl)piperazine-1-carbonyl)phenyl)pyrazin-2-yl)thiophen-3-yl)pentanamide]
101 to 1000 nM | COc1cc(-c2cncc(-c3cc(NC(=O)CC4CCC4)cs3)n2)ccc1CN1CCOCC1 [Example B35, 2-cyclobutyl-N-(5-(6-(3-methoxy-4-(morpholinomethyl)phenyl)pyrazin-2-yl)thiophen-3-yl)acetamide]
11 to 100 nM | COc1cc(-c2cncc(-c3cc(NC(=O)CC4CC4)cs3)n2)ccc1C(=O)Nc1nnco1 [Example B46, 4-(6-(4-(2-cyclopropylacetamido)thiophen-2-yl)pyrazin-2-yl)-2-methoxy-N-(1,3,4-oxadiazol-2-yl)benzamide]
11 to 100 nM | COc1cc(-c2cncc(-c3cc(NC(=O)CC4CCCC4)cs3)n2)ccc1C(=O)N1CCN(C)CC1 [Example B40, 2-cyclopentyl-N-(5-(6-(3-methoxy-4-(4-methylpiperazine-1-carbonyl)phenyl)pyrazin-2-yl)thiophen-3-yl)acetamide]
1000 to 10000 nM | CCCCCCC(=O)Nc1csc(-c2cncc(-c3ccc(C(=O)Nc4nnn[nH]4)c(OC)c3)n2)c1 [Example B17, 2-methoxy-4-(6-(4-heptanamidothiophen-2-yl)pyrazin-2-yl)-N-(1H-tetrazol-5-yl)benzamide]
> 10000 nM | CCCCCCCCC(=O)Nc1csc(-c2cncc(-c3ccc(C(=O)Nc4nnn[nH]4)c(OC)c3)n2)c1 [Example B19, 2-methoxy-4-(6-(4-nonanamidothiophen-2-yl)pyrazin-2-yl)-N-(1H-tetrazol-5-yl)benzamide]
11 to 100 nM | COc1cc(-c2cncc(-c3cc(NC(=O)CC4CCCC4)cs3)n2)ccc1C(=O)Nc1nnco1 [Example B64, 4-(6-(4-(2-cyclopentylacetamido)thiophen-2-yl)pyrazin-2-yl)-2-methoxy-N-(1,3,4-oxadiazol-2-yl)benzamide]
11 to 100 nM | COc1cc(-c2cncc(-c3cc(NC(=O)NC4CCC4)cs3)n2)ccc1C(=O)N(C)C1CCN(C)CC1 [Example F1, 4-(6-(4-(3-cyclobutylurea)thiophen-2-yl)pyrazin-2-yl)-2-methoxy-N-methyl-N-(1-methylpiperidin-4-yl) benzamide]
101 to 1000 nM | CCCCC(=O)Nc1csc(-c2cncc(N3CCN(S(C)(=O)=O)CC3)n2)c1 [Example D6, N-(5-(6-(4-(methylsulfonyl)piperazin-1-yl)pyrazin-2-yl)thiophen-3-yl)pentanamide]
101 to 1000 nM | COc1cc(-c2cncc(-c3cc(NC(=O)C4CCCCC4)cs3)n2)ccc1C(=O)O [Example B6, 4-(6-(4-(cyclohexanecarboxamido)thiophen-2-yl)pyrazin-2-yl)-2-methoxybenzoic acid]
11 to 100 nM | COc1cc(-c2cncc(-c3cc(NC(=O)CC4CC4)cs3)n2)ccc1C(=O)N(C)OC [Example B79, 4-(6-(4-(2-cyclopropylacetamido)thiophen-2-yl)pyrazin-2-yl)-N,2-dimethoxy-N-methylbenzamide]
101 to 1000 nM | CCCCC(=O)Nc1csc(-c2cncc(-c3ccc(C(=O)N(C)C4CCN(C)CC4)c(F)c3)n2)c1 [Example B73, 2-fluoro-N-methyl-N-(1-methylpiperidin-4-yl)-4-(6-(4-pentanamidothiophen-2-yl)pyrazin-2-yl)benzamide]
> 10000 nM | CCCCCCCCCCC(=O)Nc1csc(-c2cncc(-c3ccc(C(=O)Nc4nnn[nH]4)c(OC)c3)n2)c1 [Example B21, 2-methoxy-4-(6-(4-undecanamidothiophen-2-yl)pyrazin-2-yl)-N-(1H-tetrazol-5-yl)benzamide]
11 to 100 nM | COc1cc(-c2cncc(-c3cc(NC(=O)CC4CCC4)cs3)n2)ccc1C(=O)N1CCN(C)CC1 [Example B39, 2-cyclobutyl-N-(5-(6-(3-methoxy-4-(4-methylpiperazine-1-carbonyl)phenyl)pyrazin-2-yl)thiophen-3-yl)acetamide]
101 to 1000 nM | COc1cc(-c2cncc(-c3cc(NC(=O)CC4(N)CCC4)cs3)n2)ccc1C(=O)N(C)C1CCN(C)CC1 [Example B94, 4-(6-(4-(2-(1-aminocyclobutyl)acetamido)thiophen-2-yl)pyrazin-2-yl)-2-methoxy-N-methyl-N-(1-methylpiperidin-4-yl)benzamide]
101 to 1000 nM | COc1cc(-c2cncc(-c3cc(NC(=O)CC4(C)COC4)cs3)n2)ccc1C(=O)N(C)C1CCN(C)CC1 [Example B82, 2-methoxy-N-methyl-4-(6-(4-(2-(3-methyloxetan-3-yl)acetamido)thiophen-2-yl)pyrazin-2-yl)-N-(1-methylpiperidin-4-yl)benzamide]
101 to 1000 nM | CCC(=O)Nc1csc(-c2cncc(-c3ccc(C(=O)Nc4nnn[nH]4)c(OC)c3)n2)c1 [Example B11, 2-methoxy-4-(6-(4-propionamidothiophen-2-yl)pyrazin-2-yl)-N-(1H-tetrazol-5-yl)benzamide]
1000 to 10000 nM | CCCCC(=O)Nc1csc(-c2cncc(-c3ccc(OC)c(OC)c3)c2C#N)c1 [Example C4, N-(5-(4-cyano-5-(3,4-dimethoxyphenyl)pyridin-3-yl)thiophen-3-yl)pentanamide]
